# Reference: US10155021B2, “Antimicrobial 4-oxoquinolizines” (Emergent Product Development Gaithersburg Inc., priority 2011, dated 2018)
# Read-outs that look alike come from different tables or passages of the source.
# Assays:
# B. anthracis = experiment: microbe, parasite or virus in culture; assay type: cell-based; settings: Bacillus anthracis, read-out: MIC B. anthracis
# F. tularensis = experiment: microbe, parasite or virus in culture; assay type: cell-based; settings: Francisella tularensis, read-out: MIC F. tularensis
# B. abortus = experiment: microbe, parasite or virus in culture; assay type: cell-based; settings: Brucella abortus, read-out: MIC B. abortus
# B. pseudomallei = experiment: microbe, parasite or virus in culture; assay type: cell-based; settings: Burkholderia pseudomallei, read-out: MIC B. pseudomallei
# B. thailandensis = experiment: microbe, parasite or virus in culture; assay type: cell-based, Burkholderia thailandensis
# S. aureus 101 = experiment: MIC, standard panel of Gram-positive and Gram-negative bacteria (CLSI); assay type: cell-based, Staphylococcus aureus; settings: Staphylococcus aureus, 101; CAMHB; read-out: MIC S. aureus 101
# E. faecium 19434 = experiment: as above; assay type: cell-based, Enterococcus faecium; settings: Enterococcus faecium, 19434; CAMHB; read-out: MIC E. faecium 19434
# E. coli 25922 = experiment: as above; assay type: cell-based, Escherichia coli; settings: Escherichia coli, 25922; CAMHB; read-out: MIC E. coli 25922
# P. aeruginosa 27853 = experiment: as above; assay type: cell-based, Pseudomonas aeruginosa; settings: Pseudomonas aeruginosa, 27853; CAMHB; read-out: MIC P. aeruginosa 27853
# E. coli CTX-M-15 = experiment: MIC, panel of quinolone-resistant strains (CLSI); assay type: cell-based; settings: Escherichia coli, CTXM15; CIP R, ESBL
# E. coli 2906 = experiment: MIC, panel of quinolone-resistant strains (CLSI); assay type: cell-based; settings: Escherichia coli, CIP R
# Klebsiella ssp KPC-3 = experiment: MIC, panel of quinolone-resistant strains (CLSI); assay type: cell-based, Klebsiella spp; settings: KPC3, CIP R, ESBL
# Pseudomonas ssp PER-1 = experiment: MIC, panel of quinolone-resistant strains (CLSI); assay type: cell-based, Pseudomonas spp; settings: PER1, CIP R, ESBL
# P. aeruginosa 1388-3-02 = experiment: MIC, panel of quinolone-resistant strains (CLSI); assay type: cell-based; settings: Pseudomonas aeruginosa, 1388302; CIP R, POL R
# P. aeruginosa 143-3-03 = experiment: MIC, panel of quinolone-resistant strains (CLSI); assay type: cell-based; settings: Pseudomonas aeruginosa, 143303; CIP I, POL R
# S. pneumoniae 1027 = experiment: MIC, panel of quinolone-resistant strains (CLSI); assay type: cell-based; settings: Streptococcus pneumoniae, LEV R
# [1] = system: Acinetobacter spp. H064200250; experiment: MIC determination for Acinetobacter strains (Example 3); assay type: cell-based, Acinetobacter sp.; settings: LEV R, CIP R, MRP R, IMP I
# [2] = system: resistant strains of A. baumannii and one strain of Acinetobacter sp.; experiment: MIC without and with sub-inhibitory polymyxin B, whole panel / MIC ranges (Example 4; also strains not listed separately); assay type: cell-based; settings: Acinetobacter baumannii, 1st experiment
# A. baumannii J2 [3] = experiment: MIC without and with sub-inhibitory polymyxin B (Example 4); assay type: cell-based, Acinetobacter baumannii; settings: A. baumannii J2; +[…] polymyxin B; 2nd experiment; visual reading
# [4] = system: Acinetobacter sp. (H064200250); experiment: as above; assay type: cell-based; settings: Acinetobacter, without polymyxin B, read-out: MIC without PB
# A. baumannii J2 [5] = experiment: Preliminary MBC without and with sub-inhibitory polymyxin B (Example 4); assay type: cell-based, Acinetobacter baumannii; settings: A. baumannii J2; +[…] polymyxin B; 2nd experiment; preliminary MBC
# [6] = system: Acinetobacter sp. (H064200250); experiment: as above; assay type: cell-based; settings: Acinetobacter, without polymyxin B, preliminary MBC, read-out: MBC without PB
# Method: The plates were incubated for 18-20 hours at 37° C. The MBC was read as the lowest concentration at which colony growth was ca. 90% less than the positive control (i.e. usually where single colonies or no colonies were observed).
# [7] = Acinetobacter spp. H064200250, 1st experiment
smiles,measurement,setting,value
"Cc1c(-c2ccc(CN)cc2)c(F)cn2c(=O)c(C(=O)O)cc(C3CC3)c12 [Compound 6, 8-(4-aminomethyl-phenyl)-1-cyclopropyl-7-fluoro-9-methyl-4-oxo-quinolizine-3-carboxylic acid]",MIC,B. anthracis,0.125 µg/mL
same,MIC,F. tularensis,0.125 µg/mL
same,MIC,B. abortus,0.5 µg/mL
same,MIC,B. pseudomallei,2 µg/mL
same,MIC90,"B. thailandensis; Burkholderia thailandensis, read-out: MIC90 B. thailandensis",0.39 µg/mL
same,Dilutions improvement shift on B. thailandensis MIC90 (between pH 7 and pH 5),B. thailandensis; pH 7 versus pH 5,No
same,MIC,S. aureus 101,2 µg/mL
same,MIC,E. faecium 19434,4 µg/mL
same,MIC,E. coli 25922,< 0.03 µg/mL
same,MIC,P. aeruginosa 27853,2 µg/mL
same,MIC,E. coli CTX-M-15,16 µg/mL
same,MIC,E. coli 2906,16 µg/mL
same,MIC,Klebsiella ssp KPC-3,16 µg/mL
same,MIC,Pseudomonas ssp PER-1,16 µg/mL
same,MIC,P. aeruginosa 1388-3-02,32 µg/mL
same,MIC,P. aeruginosa 143-3-03,8 µg/mL
same,MIC,S. pneumoniae 1027,2 µg/mL
same,MIC,[1],8 µg/mL
same,MIC,"[2]; A. baumannii A14, without polymyxin B, read-out: MIC without PB",32 µg/mL
same,MIC,"[2]; NCTC13301, A. baumannii NCTC 13301, without polymyxin B, read-out: MIC without PB",32 µg/mL
same,MIC,"[2]; read-out: MIC range without PB 01-10-2008 n = 8, without polymyxin B, 8 strains",4 to 32 µg/mL
same,MIC +[…] PB,A. baumannii J2 [3],0.25 µg/mL
same,MIC,"[4]; Acinetobacter spp. H064200250 (OXA51), 2nd experiment, visual reading",16 µg/mL
same,MIC,[4]; [7],8 µg/mL
same,MBC +[…] PB,A. baumannii J2 [5],0.25 µg/mL
same,MBC,"[6]; Acinetobacter spp. H064200250 (OXA51), 2nd experiment",> 32 µg/mL
same,MBC,[6]; [7],8 µg/mL
